Experimental data reported in ChEMBL document CHEMBL1144945, “Development of progesterone receptor antagonists from 1,2-dihydrochromeno[3,4-f]quinoline agonist pharmacophore” (Bioorg Med Chem Lett, 2003).
Values belong to the compound of their own block, whether it stands above or below them. The source made the active and inactive calls.

Experiments:
Progesterone receptor [1] = molecular target: T1, Progesterone receptor (Homo sapiens, UniProt P06401)
T1 sequence (P06401 whole entry): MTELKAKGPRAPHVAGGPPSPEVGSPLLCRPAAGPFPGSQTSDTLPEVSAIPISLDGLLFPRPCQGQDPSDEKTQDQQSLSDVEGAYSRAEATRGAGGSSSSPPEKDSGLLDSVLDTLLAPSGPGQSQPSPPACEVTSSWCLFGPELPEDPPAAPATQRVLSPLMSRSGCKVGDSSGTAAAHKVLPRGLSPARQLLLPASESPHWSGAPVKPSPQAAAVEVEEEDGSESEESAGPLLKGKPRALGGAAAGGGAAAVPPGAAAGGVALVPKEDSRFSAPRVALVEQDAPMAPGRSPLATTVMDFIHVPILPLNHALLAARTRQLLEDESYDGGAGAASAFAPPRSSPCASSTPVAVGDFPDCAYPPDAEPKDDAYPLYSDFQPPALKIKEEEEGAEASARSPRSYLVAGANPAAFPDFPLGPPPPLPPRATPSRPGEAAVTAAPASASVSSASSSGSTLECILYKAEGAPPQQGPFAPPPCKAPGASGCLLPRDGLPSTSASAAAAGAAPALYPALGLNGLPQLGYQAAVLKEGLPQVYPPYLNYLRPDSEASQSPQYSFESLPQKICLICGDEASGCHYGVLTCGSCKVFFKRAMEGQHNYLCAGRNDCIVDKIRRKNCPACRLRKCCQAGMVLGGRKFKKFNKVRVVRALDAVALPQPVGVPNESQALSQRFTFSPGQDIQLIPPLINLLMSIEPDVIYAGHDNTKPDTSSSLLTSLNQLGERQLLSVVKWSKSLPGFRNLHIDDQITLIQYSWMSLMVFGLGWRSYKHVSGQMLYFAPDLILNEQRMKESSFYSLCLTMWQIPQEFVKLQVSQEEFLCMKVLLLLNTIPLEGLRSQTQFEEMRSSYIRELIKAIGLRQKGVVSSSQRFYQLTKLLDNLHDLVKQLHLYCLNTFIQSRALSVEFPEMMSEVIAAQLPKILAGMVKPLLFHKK
Description: Inhibition of human progesterone receptor activation in T47D human breast cancer cell.

[2] = molecular target: T2, Progesterone receptor (Homo sapiens) (UniProt P06401); assay: Agonist efficacy for human progesterone receptor in T47D human breast cancer cell; not active (<20% efficacy and/or >10 mM potency); type: functional, cell-based
T2 sequence (whole entry): T1 sequence (P06401 whole entry)

Progesterone receptor [3] = molecular target: T1, Progesterone receptor; remark: listed apart in the source
Description: Binding affinity at human progesterone receptor.

[4] = molecular target: T2, Progesterone receptor (Homo sapiens); assay: Effective concentration against human progesterone receptor in T47D human breast cancer cell; not active (<20% efficacy and/or >10 mM potency); type: cell-based; details: Cancer cell lines
Progesterone receptor [5] = molecular target: T1, Progesterone receptor; remark: listed apart in the source
Description: Antagonistic activity at human progesterone receptor in CV-1 cells.

Progesterone receptor [6] = molecular target: T1, Progesterone receptor; assay: Binding towards human progesterone receptor
[7] = molecular target: T2, Progesterone receptor (Homo sapiens); assay: Antagonist efficacy for human progesterone in CV-1 cells; type: functional, cell-based
Progesterone receptor [8] = molecular target: T1, Progesterone receptor; assay: Effective concentration for antagonistic activity towards human progesterone in CV-1 cells; type: functional, cell-based
Progesterone receptor [9] = molecular target: T1, Progesterone receptor; remark: listed apart in the source
Description: Effective concentration for human progesterone receptor in T47D human breast cancer cell

[10] = molecular target: T3, Mineralocorticoid receptor (Homo sapiens, UniProt P08235); assay: Inhibition of antagonist activity towards mineralocorticoid receptor (hMR); Not active; type: functional
T3 sequence (P08235 whole entry): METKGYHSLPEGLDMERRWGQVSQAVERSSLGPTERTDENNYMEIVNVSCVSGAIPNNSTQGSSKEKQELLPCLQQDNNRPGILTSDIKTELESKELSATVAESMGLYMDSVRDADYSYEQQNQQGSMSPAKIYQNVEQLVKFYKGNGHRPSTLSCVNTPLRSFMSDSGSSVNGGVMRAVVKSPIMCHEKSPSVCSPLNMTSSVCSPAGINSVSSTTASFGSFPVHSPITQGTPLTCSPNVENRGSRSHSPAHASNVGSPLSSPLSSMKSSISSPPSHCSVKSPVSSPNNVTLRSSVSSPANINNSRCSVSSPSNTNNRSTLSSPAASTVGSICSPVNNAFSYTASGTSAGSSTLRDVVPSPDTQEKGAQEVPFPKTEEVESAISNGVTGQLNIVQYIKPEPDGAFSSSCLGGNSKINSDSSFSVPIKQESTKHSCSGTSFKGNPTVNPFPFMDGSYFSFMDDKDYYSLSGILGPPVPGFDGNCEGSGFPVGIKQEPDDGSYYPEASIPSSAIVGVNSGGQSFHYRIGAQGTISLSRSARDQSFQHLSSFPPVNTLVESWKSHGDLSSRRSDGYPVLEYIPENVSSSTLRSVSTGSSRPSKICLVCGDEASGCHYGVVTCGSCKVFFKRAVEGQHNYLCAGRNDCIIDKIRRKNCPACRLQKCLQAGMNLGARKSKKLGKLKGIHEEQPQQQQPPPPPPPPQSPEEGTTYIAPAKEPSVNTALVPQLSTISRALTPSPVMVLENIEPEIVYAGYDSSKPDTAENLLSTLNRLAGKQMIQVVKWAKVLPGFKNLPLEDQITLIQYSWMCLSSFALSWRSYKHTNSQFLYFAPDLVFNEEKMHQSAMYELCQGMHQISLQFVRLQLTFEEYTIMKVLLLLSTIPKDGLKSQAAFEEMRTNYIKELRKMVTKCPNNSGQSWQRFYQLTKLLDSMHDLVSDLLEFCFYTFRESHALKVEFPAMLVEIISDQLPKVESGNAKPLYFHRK

[11] = molecular target: T4, Mineralocorticoid receptor (Homo sapiens) (UniProt P08235); assay: Antagonist efficacy for mineralocorticoid receptor (hMR); Not active; type: functional
T4 sequence (whole entry): T3 sequence (P08235 whole entry)

Androgen receptor = molecular target: T5, Androgen receptor (Homo sapiens, UniProt P10275)
T5 sequence (P10275 whole entry): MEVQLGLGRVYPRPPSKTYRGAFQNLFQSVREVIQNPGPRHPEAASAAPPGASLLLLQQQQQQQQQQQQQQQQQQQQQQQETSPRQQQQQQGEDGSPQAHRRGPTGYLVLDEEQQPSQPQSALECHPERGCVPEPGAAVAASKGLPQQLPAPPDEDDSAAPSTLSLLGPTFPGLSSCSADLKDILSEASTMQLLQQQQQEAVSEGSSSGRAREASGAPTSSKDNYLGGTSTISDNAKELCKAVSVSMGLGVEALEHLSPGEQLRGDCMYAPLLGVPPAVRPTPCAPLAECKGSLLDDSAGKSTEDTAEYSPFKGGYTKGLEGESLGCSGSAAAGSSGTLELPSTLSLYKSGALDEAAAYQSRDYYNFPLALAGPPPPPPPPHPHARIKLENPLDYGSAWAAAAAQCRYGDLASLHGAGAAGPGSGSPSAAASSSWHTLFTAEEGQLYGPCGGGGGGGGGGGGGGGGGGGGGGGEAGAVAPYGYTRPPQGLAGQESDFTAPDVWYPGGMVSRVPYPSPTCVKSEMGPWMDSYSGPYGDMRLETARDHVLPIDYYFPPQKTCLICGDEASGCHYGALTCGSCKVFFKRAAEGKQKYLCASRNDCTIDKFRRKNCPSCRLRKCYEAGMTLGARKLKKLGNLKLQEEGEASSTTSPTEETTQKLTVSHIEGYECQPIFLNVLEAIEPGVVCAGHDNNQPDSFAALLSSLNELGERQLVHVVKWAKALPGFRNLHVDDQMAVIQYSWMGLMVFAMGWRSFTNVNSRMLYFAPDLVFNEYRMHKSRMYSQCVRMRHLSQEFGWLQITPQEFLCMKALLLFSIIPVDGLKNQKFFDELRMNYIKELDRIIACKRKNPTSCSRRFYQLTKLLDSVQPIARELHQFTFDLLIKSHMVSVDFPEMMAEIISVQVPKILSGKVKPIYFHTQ
Description: Inhibition of antagonist activity towards Androgen receptor

[12] = molecular target: T6, Estrogen receptor (Homo sapiens) (UniProt Q92731+P03372); assay: Antagonist efficacy for Estrogen receptor; Not active; type: functional
Glucocorticoid receptor = molecular target: T7, Glucocorticoid receptor (Homo sapiens, UniProt P04150); assay: Inhibition of antagonist activity towards glucocorticoid receptor; type: functional
T7 sequence (P04150 whole entry): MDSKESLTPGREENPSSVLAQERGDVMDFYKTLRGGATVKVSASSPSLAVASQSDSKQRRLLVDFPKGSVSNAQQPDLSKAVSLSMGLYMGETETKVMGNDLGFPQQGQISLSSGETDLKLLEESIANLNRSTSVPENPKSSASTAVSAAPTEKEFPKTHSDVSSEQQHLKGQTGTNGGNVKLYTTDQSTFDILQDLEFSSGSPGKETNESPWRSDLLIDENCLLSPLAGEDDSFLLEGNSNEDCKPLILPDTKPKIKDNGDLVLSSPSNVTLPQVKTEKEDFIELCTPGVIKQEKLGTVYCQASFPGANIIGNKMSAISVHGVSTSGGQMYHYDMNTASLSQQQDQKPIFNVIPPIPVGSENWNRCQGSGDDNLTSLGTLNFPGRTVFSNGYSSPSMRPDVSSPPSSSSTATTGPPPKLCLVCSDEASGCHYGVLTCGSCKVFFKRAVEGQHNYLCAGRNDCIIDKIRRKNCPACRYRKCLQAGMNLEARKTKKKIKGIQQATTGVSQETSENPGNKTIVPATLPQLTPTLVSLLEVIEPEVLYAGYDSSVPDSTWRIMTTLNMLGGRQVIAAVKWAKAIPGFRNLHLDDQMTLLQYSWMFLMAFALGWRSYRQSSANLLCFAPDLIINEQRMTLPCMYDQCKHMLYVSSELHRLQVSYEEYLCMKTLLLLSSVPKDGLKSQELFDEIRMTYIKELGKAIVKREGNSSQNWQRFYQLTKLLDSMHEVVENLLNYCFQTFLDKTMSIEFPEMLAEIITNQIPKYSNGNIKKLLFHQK

[13] = molecular target: T6, Estrogen receptor (Homo sapiens); assay: Antagonist efficacy for Estrogen receptor; type: functional
[14] = molecular target: T3, Mineralocorticoid receptor; assay: Inhibition of antagonist activity towards mineralocorticoid receptor (hMR); type: functional
[15] = molecular target: T4, Mineralocorticoid receptor (Homo sapiens); assay: Antagonist efficacy for mineralocorticoid receptor (hMR); type: functional

SMILES: Cc1cc(F)cc2c1OCc1c-2ccc2c1C(C)CC(C)(C)N2 (stereo unspecified)
IC50 (Progesterone receptor [1]): 499 nM
Activity [2]: inactive
Ki (Progesterone receptor [3]): 391 nM
Activity [4]: inactive
EC50 (Progesterone receptor [5]): 637 nM

SMILES: CC#C[C@]1(O)CC[C@H]2[C@@H]3CCC4=CC(=O)CCC4=C3[C@@H](c3ccc(N(C)C)cc3)C[C@@]21C
Efficacy [13]: 59%

SMILES: CC1=CC(C)(C)Nc2ccc3c(c21)COc1ccc([N+](=O)[O-])cc1-3
EC50 (Progesterone receptor [9]): 257 nM
IC50 (Progesterone receptor [1]): 152 nM
IC50 (Androgen receptor): 60 nM
Efficacy [12]: inactive
IC50 [14]: 1890 nM
Ki (Progesterone receptor [3]): 6.8 nM
Efficacy [15]: 79%
EC50 (Progesterone receptor [5]): 28.6 nM
IC50 (Glucocorticoid receptor): 689 nM

SMILES: CN(C)c1ccc([C@H]2C[C@]3(C)[C@@H](CC[C@]3(O)CCCO)[C@@H]3CCC4=CC(=O)CCC4=C32)cc1 [ONAPRISTONE]
IC50 [14]: 470 nM
Activity [2]: inactive
Efficacy [15]: 49%
Activity [4]: inactive

Results, then the compound that gave them:

Ki (Progesterone receptor [6]): > 1000 nM
Efficacy [7]: 86%
EC50 (Progesterone receptor [8]): 1870 nM
SMILES: CC1=CC(C)(C)Nc2ccc3c(c21)COc1c(Br)cc(Br)cc1-3

EC50 (Progesterone receptor [9]): 86 nM
IC50 [10]: Not Active
IC50 (Progesterone receptor [1]): 149 nM
Efficacy [11]: inactive
IC50 (Androgen receptor): 60 nM
Efficacy [12]: inactive
Ki (Progesterone receptor [3]): 4.5 nM
EC50 (Progesterone receptor [5]): 16.7 nM
IC50 (Glucocorticoid receptor): 194 nM
SMILES: CC1=CC(C)(C)Nc2ccc3c(c21)COc1c(F)cc(C#N)cc1-3

Ki (Progesterone receptor [3]): 476 nM
EC50 (Progesterone receptor [5]): 43 nM
SMILES: COc1cc(Br)cc2c1OCc1c-2ccc2c1C(C)=CC(C)(C)N2

IC50 (Progesterone receptor [1]): 374 nM
Ki (Progesterone receptor [3]): 205 nM
EC50 (Progesterone receptor [5]): 178 nM
SMILES: CC1=CC(C)(C)Nc2ccc3c(c21)COc1c(C)cc(Cl)cc1-3
